Source: US20060062866A1, “Starch-pomegranate juice complex as an HIV entry inhibitor and topical microbicide” (NEW YORK BLOOD CENTER, INC., priority 2004, published 2006)

Target: T1, gp120-CD4 binding (Human immunodeficiency virus type 1 group M subtype B, UniProt P03375)
T1 construct: coated with 100 ng/well of either gp120 IIIB or gp120 BaL
Design: species or system HIV-1
Conditions: purified commercial compounds at 200 μg/ml
Protocol: CD4-HIV-1 gp120 binding and its inhibition were measured by ELISA. Wells of 96-well polystyrene plates (Immulon II, Dynatech Laboratories, Inc., Chantilly, Va.) were coated with 100 ng/well of either gp120 IIIB or gp120 BaL, and post-coated as described [Neurath, A. R., Strick, N., Li, Y. Y., Debnath, A. K.: Cellulose acetate phthalate, a common pharmaceutical excipient, inactivates HIV-1 and blocks the coreceptor binding site on the virus envelope glycoprotein gp120, BMC Infect. Dis., (2001), 1:17]. […] The wells were washed 5× with TS. Biotinyl-CD4 (1 μg/ml) in TS-1% gelatin was added to the wells for 5 hours at 37° C. After washing 1× with TS-0.1% Tween 20 and 5× with TS, horseradish peroxidase (HRP)-streptavidin (0.625 μg/ml; Amersham, Arlington Heights, Ill.) in TS-2% gelatin-0.05% Tween 20 was added. After 30 minutes at 37° C., the wells were washed 4 x with TS-0.1% Tween 20 and 2× with TS. Bound HRP-was detected using a kit from Kirkegaard and Perry Laboratories Inc. (Gaithersburg, Md.) and the absorbance (A) read at 450 nm. […] In an alternative assay, CD4 (500 ng/ml) was mixed with biotinyl-gp120 (1 μg/ml) in the presence or absence of inhibitors for 30 minutes at 20° C. Serial dilutions of the mixtures were added to wells coated with the anti-CD4 mAb OKT 4 (Ortho-Clinical Diagnostics, Rochester, N.Y.) and captured biotinyl-gp120 was detected with HRP-streptavidin as described above. To measure binding to gp120 of antibodies to gp120 peptides, the respective rabbit antisera were diluted 50-fold in a mixture of FBS and goat serum (9:1) containing 0.1% Tween 20 (pH 8.0) and added to gp120 wells. Bound IgG was detected with HRP labeled anti-rabbit IgG (Sigma, St. Louis, Mo.; 1 μg/ml in TS-10% goat serum-0.1% Tween 20). […] Briefly, FLSC (125 ng/ml) in the absence or presence of graded amounts of inhibitors was added to Cf2Th/synCCR5 cells fixed with 5% formaldehyde in wells of 96-well plates.

Row | Molecule | blocking of gp120-CD4 binding (ELISA)
1 | C[C@H]1[C@H](C)CC[C@]2(C(=O)O)CC[C@]3(C)C(=CC[C@@H]4[C@@]5(C)CC[C@H](O)C(C)(C)[C@@H]5CC[C@]43C)[C@H]12 [ursolic acid] | did not block
2 | O=c1c(O)c(-c2ccc(O)c(O)c2)oc2cc(O)cc(O)c12 [quercetin] | did not block
3 | catechin | did not block
4 | O=C(O)/C=C/c1ccc(O)c(O)c1 [caffeic acid] | did not block
